Measured values from ChEMBL document CHEMBL1201862, “PubChem BioAssay data set” (2004).
Active and inactive are the calls of the source.

Columns and labels:
[1] = target: Acyl-homoserine lactone acylase PvdQ (Pseudomonas aeruginosa (strain LESB58), UniProt Q9I194); experiment: P. aeruginosa PvdQ acylase inhibitors, dose response, biochemical, fluorescence, plate reader and imaging, cherry-picks (AID 493231)
Protein skinhead-1 = target: T1, Protein skinhead-1 (Caenorhabditis elegans, UniProt P34707); assay type: functional
T1 sequence (P34707 whole entry): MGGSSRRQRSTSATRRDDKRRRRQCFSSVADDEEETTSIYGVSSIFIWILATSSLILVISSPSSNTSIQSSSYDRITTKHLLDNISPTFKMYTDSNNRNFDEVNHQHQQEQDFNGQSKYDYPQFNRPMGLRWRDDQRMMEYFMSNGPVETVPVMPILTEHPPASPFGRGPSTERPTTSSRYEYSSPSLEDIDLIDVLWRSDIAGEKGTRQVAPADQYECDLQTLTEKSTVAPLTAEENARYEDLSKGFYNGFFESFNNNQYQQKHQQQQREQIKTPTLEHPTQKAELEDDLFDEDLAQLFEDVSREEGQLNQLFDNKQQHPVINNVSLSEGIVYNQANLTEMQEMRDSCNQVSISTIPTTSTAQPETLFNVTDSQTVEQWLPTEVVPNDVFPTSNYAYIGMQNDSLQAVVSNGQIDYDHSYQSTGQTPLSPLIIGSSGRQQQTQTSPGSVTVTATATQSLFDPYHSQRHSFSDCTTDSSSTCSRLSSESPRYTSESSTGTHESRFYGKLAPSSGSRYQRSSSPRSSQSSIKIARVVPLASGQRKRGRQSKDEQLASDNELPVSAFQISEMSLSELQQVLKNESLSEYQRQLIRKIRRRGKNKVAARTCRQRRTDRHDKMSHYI

[2] = target: Transitional endoplasmic reticulum ATPase (Homo sapiens, UniProt P55072); experiment: p97 ATPase inhibitors, dose response, biochemical (AID 1534)
[3] = inhibitors of firefly luciferase expression or activity, dose response, H4 neuroglioma cells, luminescence (AID 1990); assay type: functional, cell-based
[4] = inhibitors of SNCA 5'UTR-driven reporter translation, confirmation, H4 neuroglioma cells, luminescence (AID 1988); assay type: functional, cell-based
[5] = NIH-3T3 fibroblast cytotoxicity, dose response, cytotoxicity control, cell-based, fluorescence, Alamar Blue, secondary assay (AID 2327); assay type: functional;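 further: NIH-3T3 mouse fibroblasts cultured with fluconazole at 8 µg/mL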
[6] = growth suppression of beta-catenin-knockout colon cells, dose response, cell-based, HCT116, human colon tumor (AID 1045); assay type: functional;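 further: HCT116 colon tumor cells with beta catenin knocked out; cells exposed to compound for 60 hours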
[7] = target: T2, Calpain-2 catalytic subunit (Sus scrofa, UniProt P43367); experiment: pig calpain II inhibitor potency, dose response, biochemical, fluorogenic peptide substrate (AID 1420); assay type: functional
T2 sequence (P43367 whole entry): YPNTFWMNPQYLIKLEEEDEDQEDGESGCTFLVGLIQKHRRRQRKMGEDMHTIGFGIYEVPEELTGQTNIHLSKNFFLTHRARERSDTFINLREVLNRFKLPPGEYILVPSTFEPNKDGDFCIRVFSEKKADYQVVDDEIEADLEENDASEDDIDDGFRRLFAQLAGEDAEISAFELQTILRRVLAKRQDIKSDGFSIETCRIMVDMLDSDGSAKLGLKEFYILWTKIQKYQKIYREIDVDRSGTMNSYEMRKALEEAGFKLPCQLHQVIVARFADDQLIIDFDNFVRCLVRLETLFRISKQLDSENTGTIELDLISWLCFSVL

Bcl-2-related protein A1 = target: T3, Bcl-2-related protein A1 (Mus musculus, UniProt Q07440); assay type: functional;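 further: confirmatory dose–response counterscreen on Bfl-1, used to check hits from a UBC13 polyubiquitin inhibitor campaign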
T3 sequence (Q07440 whole entry): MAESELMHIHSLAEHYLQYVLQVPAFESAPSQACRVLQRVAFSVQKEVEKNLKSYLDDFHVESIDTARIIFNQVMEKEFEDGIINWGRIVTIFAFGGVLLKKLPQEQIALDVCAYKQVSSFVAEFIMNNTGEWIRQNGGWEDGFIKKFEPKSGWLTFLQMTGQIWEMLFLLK

[8] = Luminescence Cell-Based Dose Response HTS to Identify Inhibitors of 5'UTR Stem-Loop Driven Prion Protein mRNA Translation in H4 Neuroglioblastoma Cells. [Related pubchem assays: 1827 (Project Summary), 1813 (Primary HTS)]; assay type: functional
[9] = growth suppression of PTEN-null colon cells, dose response, cell-based, HCT116 PTEN knockout (AID 1047); assay type: functional;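 further: HCT116 colon tumor cells with PTEN knocked out; cells exposed to compound for 60 hours before readout; potency for loss of cell viability measured by luminescence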
[10] = target: T4, Ubiquitin-conjugating enzyme E2 N (Homo sapiens, UniProt P61088); assay type: functional
T4 sequence (P61088 whole entry): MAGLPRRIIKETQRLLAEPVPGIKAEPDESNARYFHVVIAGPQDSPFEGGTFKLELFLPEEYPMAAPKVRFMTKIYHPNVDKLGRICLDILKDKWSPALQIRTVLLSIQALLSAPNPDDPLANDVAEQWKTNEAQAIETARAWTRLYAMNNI

[11] = target: Transitional endoplasmic reticulum ATPase (Homo sapiens, UniProt P55072, C522A); experiment: C522A mutant p97 ATPase inhibitors, dose response, counter-screen for p97 inhibitor project, biochemical, luminescence (AID 1544)
[12] = target: T4, Ubiquitin-conjugating enzyme E2 N; assay type: functional; remark: listed apart in the source
[13] = target: T5, Polyadenylate-binding protein 1 (Homo sapiens, UniProt P11940); experiment: PABP1 MLLE–PAM2 binding inhibitor potency, dose response, biochemical, fluorescence polarization, FITC-PAM2 peptide (AID 602259); assay type: functional; conditions: read-out: IC50_Mean
[14] = target: T6, Zinc finger protein mex-5 (Caenorhabditis elegans, UniProt Q9XUB2); experiment: MEX-5/TCR-2 RNA interaction inhibitors, dose response, biochemical, C. elegans, fluorescence polarization (AID 1960)
T6 sequence (Q9XUB2 whole entry): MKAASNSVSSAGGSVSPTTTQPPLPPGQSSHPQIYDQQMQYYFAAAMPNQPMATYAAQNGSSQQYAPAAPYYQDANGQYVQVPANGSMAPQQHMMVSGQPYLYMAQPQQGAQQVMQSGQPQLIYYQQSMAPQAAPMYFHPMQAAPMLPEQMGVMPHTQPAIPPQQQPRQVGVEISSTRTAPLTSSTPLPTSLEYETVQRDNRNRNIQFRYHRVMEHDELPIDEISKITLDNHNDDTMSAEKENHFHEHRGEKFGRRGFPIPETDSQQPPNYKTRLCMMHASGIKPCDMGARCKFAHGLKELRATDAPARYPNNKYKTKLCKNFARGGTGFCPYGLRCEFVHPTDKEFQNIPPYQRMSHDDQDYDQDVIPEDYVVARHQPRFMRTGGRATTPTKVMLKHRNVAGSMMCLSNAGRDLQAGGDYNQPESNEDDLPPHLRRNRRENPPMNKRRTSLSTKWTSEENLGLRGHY

[15] = target: Photoreceptor-specific nuclear receptor (Homo sapiens, UniProt Q9Y5X4); assay type: functional;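 further: potency for compounds that break the NR2E3 corepressor complex and count as activators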
[16] = target: Peroxisome proliferator-activated receptor gamma/Nuclear receptor corepressor 2 (Homo sapiens, UniProt P37231+Q9Y618); assay type: functional
[17] = target: T7, RNA-binding protein pos-1 (Caenorhabditis elegans, UniProt G5EF15); experiment: inhibitors of POS-1/mex-3 RNA binding, dose response, biochemical, fluorescence polarization (AID 1964);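 further: purified POS-1 fused to maltose binding protein made in E. coli; potency of compounds blocking POS-1 binding to fluorescent RNA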
T7 sequence (G5EF15 whole entry): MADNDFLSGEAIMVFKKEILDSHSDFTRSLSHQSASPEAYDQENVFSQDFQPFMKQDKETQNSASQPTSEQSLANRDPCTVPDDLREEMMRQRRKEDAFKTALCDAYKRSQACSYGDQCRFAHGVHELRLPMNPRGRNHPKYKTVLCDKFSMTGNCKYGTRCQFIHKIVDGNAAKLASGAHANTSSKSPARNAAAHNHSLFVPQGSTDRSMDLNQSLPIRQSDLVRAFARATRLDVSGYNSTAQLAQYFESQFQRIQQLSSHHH

[18] = target: T5, Polyadenylate-binding protein 1; experiment: PABP1 MLLE–PAM2 interaction inhibitors, dose response, miRNA deadenylation inhibitor project, biochemical, fluorescence polarization, Cy5-PAM2 peptide, secondary (AID 602260); assay type: functional; conditions: read-out: IC50_Mean
Streptococcus = experiment: Group A Streptococcus viability loss, dose response, counter-screen for streptokinase expression inhibitor project, luminescence, BacTiterGlo (AID 1915); assay type: functional, organism-based;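 further: potency for reduction of bacterial viability or growth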
[19] = target: Multidrug resistance protein CDR1 (Candida albicans, UniProt P43071); experiment: CaCDR1 efflux pump inhibitors in yeast, dose response, S. cerevisiae AD1-8u, singleplex, Cherry Pick1 hits (AID 588606); assay type: functional
[20] = Luminescence Cell-Based Dose Confirmation HTS to Identify Inhibitors of Polyadenylation.; assay type: functional
[21] = polyadenylation inhibitors in yeast reporter, dose response, luminescence, S. cerevisiae SKY197-pL101 (AID 2525); assay type: functional, cell-based
[22] = system: Streptococcus sp. 'group A'; experiment: growth inhibition of control SK(-) GAS strain, dose response, counter-screen for streptokinase expression inhibitor project, luminescence, kanamycin, BacTiterGlo, confirmation (AID 1900); assay type: functional, organism-based
Streptokinase A = target: T8, Streptokinase A (Streptococcus pyogenes serotype M1, UniProt P10520); experiment: S. pyogenes streptokinase expression inhibitors, potency, dose response, plasminogen activation absorbance, OD405 (AID 1914); assay type: functional, Streptococcus pyogenes M1 GAS;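 further: secreted streptokinase activity via plasminogen activation per viability signal from cell pellet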
T8 sequence (P10520 whole entry): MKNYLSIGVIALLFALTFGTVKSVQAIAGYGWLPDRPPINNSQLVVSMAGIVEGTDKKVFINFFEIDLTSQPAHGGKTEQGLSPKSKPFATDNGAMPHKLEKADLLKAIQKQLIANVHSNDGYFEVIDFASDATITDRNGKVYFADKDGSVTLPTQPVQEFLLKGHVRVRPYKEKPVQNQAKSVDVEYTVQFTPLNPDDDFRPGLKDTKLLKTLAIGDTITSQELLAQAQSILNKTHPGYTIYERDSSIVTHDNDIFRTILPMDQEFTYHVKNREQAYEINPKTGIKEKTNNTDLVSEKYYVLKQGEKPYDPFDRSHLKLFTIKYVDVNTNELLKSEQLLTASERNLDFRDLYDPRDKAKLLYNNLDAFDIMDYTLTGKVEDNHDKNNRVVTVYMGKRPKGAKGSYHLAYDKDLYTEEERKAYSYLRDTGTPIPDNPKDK

[23] = target: Lysosomal acid glucosylceramidase (Homo sapiens, UniProt P04062); experiment: Dose response cell-based high throughput screening assay to identify enhancers of beta-glucosidase activity. [Related pubchem assays: 784 ]; assay type: functional
Chain of Lysosomal acid glucosylceramidase (P04062 whole entry): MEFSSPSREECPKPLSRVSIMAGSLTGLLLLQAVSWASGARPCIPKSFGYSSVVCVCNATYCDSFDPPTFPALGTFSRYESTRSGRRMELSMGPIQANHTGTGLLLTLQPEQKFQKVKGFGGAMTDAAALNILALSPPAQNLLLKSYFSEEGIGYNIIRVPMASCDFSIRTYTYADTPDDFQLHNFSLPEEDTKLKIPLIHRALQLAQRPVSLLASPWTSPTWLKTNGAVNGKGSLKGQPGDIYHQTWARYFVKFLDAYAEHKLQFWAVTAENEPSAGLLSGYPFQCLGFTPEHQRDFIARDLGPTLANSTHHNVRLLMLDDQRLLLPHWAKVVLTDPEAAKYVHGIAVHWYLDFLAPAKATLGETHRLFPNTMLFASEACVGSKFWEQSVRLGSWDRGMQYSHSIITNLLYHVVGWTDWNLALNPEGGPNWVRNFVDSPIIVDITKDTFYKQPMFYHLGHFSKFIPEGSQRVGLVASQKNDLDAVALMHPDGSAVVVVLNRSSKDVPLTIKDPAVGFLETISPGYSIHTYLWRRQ

T5 sequence (P11940 whole entry): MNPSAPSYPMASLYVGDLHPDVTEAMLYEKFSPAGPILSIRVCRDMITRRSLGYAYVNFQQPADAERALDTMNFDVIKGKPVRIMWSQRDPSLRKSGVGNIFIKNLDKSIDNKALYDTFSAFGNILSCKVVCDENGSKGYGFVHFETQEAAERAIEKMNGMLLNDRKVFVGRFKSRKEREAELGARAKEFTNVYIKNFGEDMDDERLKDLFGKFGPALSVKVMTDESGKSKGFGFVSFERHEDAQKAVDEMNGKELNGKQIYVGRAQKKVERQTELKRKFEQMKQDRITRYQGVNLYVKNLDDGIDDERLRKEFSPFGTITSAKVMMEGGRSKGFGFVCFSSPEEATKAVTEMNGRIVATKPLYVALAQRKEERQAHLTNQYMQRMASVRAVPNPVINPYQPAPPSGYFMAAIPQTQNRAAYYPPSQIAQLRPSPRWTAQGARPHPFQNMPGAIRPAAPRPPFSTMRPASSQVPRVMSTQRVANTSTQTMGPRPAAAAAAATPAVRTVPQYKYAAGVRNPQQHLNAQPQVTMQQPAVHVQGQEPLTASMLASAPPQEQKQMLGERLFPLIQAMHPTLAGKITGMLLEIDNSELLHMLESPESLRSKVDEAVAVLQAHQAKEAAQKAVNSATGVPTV
Chain of Photoreceptor-specific nuclear receptor (Q9Y5X4 whole entry): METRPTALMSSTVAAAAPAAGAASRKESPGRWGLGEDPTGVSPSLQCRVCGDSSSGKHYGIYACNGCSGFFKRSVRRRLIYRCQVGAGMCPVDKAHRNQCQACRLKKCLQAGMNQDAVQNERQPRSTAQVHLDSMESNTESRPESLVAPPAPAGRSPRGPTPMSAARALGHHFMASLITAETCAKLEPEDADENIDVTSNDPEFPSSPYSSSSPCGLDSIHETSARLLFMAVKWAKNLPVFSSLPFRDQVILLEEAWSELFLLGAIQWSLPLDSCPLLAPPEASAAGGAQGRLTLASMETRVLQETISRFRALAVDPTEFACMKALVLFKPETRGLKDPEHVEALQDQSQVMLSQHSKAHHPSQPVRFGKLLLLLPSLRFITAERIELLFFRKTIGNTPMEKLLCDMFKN
Chain of Transitional endoplasmic reticulum ATPase (Homo sapiens, UniProt P55072, C522A) (P55072 2-806 C522A limits assumed): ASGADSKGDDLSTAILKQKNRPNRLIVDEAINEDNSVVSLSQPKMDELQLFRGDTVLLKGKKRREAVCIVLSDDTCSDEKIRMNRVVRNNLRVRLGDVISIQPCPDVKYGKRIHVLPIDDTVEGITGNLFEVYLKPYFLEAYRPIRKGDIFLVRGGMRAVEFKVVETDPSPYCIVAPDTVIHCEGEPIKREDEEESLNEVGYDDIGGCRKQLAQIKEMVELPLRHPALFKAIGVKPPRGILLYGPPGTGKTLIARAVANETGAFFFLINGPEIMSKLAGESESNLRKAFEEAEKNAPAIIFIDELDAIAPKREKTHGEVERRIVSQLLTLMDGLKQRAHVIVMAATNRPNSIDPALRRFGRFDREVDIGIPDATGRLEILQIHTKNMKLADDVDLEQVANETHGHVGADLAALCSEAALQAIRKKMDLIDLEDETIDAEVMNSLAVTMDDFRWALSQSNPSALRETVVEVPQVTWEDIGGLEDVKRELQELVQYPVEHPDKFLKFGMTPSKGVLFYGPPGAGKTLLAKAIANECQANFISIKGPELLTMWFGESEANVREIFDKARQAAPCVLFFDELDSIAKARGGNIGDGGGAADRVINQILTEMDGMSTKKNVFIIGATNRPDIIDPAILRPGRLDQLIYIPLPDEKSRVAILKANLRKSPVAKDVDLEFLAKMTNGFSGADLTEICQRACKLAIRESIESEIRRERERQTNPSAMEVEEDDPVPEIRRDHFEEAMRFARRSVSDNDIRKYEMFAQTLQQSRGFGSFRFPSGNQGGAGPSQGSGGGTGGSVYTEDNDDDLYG
Chain of Multidrug resistance protein CDR1 (P43071 whole entry, looked up): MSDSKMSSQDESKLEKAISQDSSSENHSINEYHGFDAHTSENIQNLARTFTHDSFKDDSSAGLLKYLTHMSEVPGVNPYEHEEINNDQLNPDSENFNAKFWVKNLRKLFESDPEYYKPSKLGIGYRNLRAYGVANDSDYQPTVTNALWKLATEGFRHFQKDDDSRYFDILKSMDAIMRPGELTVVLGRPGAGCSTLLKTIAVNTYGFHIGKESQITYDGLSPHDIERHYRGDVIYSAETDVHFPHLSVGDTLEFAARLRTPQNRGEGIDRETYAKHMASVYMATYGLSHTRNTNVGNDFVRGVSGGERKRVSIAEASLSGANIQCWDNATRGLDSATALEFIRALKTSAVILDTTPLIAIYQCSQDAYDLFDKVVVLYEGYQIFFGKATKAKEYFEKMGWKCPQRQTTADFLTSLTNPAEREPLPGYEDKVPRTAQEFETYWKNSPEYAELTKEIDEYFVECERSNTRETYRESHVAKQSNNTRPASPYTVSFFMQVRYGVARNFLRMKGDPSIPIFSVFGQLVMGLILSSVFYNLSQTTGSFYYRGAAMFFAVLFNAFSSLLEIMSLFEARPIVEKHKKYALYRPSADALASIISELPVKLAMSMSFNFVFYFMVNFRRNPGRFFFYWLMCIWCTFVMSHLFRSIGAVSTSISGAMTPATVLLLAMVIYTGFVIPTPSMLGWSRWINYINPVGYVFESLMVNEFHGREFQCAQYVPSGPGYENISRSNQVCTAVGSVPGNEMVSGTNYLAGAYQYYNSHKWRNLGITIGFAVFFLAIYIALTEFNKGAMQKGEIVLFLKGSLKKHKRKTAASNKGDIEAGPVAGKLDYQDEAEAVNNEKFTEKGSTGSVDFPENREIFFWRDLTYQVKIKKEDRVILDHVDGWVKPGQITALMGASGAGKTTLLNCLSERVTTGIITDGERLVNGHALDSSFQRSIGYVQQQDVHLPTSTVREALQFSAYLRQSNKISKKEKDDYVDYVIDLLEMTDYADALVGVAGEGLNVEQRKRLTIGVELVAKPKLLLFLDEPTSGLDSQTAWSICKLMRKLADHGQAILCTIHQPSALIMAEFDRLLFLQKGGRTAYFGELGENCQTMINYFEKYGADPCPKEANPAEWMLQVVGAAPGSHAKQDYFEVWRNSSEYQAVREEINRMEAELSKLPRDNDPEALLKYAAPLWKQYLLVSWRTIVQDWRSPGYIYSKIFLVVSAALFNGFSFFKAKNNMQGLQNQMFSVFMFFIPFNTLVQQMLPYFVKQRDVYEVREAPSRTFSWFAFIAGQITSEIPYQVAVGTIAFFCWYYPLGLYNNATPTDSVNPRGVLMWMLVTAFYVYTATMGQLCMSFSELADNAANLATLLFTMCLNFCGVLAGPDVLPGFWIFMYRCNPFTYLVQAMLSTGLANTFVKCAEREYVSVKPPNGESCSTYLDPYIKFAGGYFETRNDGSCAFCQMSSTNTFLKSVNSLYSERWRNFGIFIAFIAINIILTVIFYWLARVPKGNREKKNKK
Chain of Acyl-homoserine lactone acylase PvdQ (Q9I194 24-193 limits assumed): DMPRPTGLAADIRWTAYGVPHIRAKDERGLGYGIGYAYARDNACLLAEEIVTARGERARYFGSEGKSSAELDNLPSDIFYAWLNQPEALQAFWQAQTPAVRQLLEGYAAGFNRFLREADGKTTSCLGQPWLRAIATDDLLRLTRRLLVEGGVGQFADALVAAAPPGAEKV
Chain of Acyl-homoserine lactone acylase PvdQ (Q9I194 217-762 limits assumed): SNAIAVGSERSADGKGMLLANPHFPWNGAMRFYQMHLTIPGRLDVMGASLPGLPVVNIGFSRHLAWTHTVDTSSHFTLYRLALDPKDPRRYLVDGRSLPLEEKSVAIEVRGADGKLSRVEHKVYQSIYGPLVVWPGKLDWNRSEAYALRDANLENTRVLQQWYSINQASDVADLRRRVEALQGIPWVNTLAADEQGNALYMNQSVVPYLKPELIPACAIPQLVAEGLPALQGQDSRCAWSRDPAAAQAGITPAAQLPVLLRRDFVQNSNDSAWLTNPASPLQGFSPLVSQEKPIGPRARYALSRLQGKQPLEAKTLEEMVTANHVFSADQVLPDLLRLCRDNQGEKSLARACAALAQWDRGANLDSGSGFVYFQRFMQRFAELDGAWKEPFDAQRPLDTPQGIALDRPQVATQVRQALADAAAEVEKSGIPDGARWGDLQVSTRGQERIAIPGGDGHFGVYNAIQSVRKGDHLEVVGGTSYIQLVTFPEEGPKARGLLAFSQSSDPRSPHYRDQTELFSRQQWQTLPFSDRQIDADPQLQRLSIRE

In the case of `Clc1ccc(-c2nnc(-c3ccco3)o2)cc1`, the AC50 [1] is reported as 24.3 µM (active) and the IC50 (Protein skinhead-1) is reported as 17.2 µM (active).

With `N=C(N)N/N=C/c1ccc(OCc2ccc(Cl)cc2Cl)cc1` the IC50 [2] was > 50 µM (not active), the EC50 [3] was > 120 µM (not active) and the EC50 [4] was > 120 µM (not active). For the same molecule, the EC50 [5] was 21 µM (inconclusive), the EC50 [6] was 4.16 µM (active) and the IC50 [7] was 7.31 µM (not active). For the same molecule, the IC50 (Bcl-2-related protein A1) was 13 µM (active), the EC50 [8] was > 120 µM (not active) and the EC50 [9] was 4.19 µM (active). The IC50 [10] was 5.97 µM (active), the IC50 [11] was > 50 µM (not active) and the IC50 [12] was 7.26 µM (active).

In the case of `COC(=O)c1cc2n3ccccc3c(C)c(-c3ccccc3)c-2c1C(=O)OC`, the IC50 [13] is reported as 54.7 µM (inactive), the EC50 [14] is reported as 16.6 µM (active) and the IC50 [15] is reported as 0.186 µM (active). For the same molecule, the IC50 [16] was 0.196 µM (active), the EC50 [17] was 23.6 µM (active) and the IC50 [18] was > 66 µM (inactive).

With `COc1cc(/C=C2/CC/C(=C/c3ccc(O)c(OC)c3)C2=O)ccc1O` the EC50 (Streptococcus) was 76.7 µM (active), the EC50 [19] was 27.1 µM (active) and the EC50 [20] was 6.57 µM (active). For the same molecule, the EC50 [21] was 173 µM (active), the EC50 [22] was 15.8 µM (active) and the EC50 (Streptokinase A) was > 150 µM (not active).

For `CC(=O)N1CCc2cc(Br)cc(S(=O)(=O)NCCN3CCCCC3C)c21` (configuration not stated), the EC50 [23] was > 50 µM (not active).
